In patent US6239284A, “Aromatic tetracyclic compounds of the retinoid type method for preparing and use” (priority 1997, dated 2001):

Experiments:
[1] = system: ERE; assay: Anti-estrogenic effect, MELN cellular lineage (MCF-7 with ERE-βGlob-Luc) activated by estradiol; assay type: cell-based, human; details: Homo sapiens, read-out: Anti-oestrogenic effect, Inhibition (%)
Method: MCF-7 cells express RARα,γ and RXRα. The transfection of MCF-7 cells by an estrogen-dependent gene (ERE-βGlob-Luc) has permitted the establishment of the MELN cellular lineage, used to determine the anti-oestrogenic activity of the retinoids. These cells contain the gene of the luciferase under the transcriptional control of the promoter of the βGlobine and of the response element ERE isolated from the gene of chicken vitelogenine A2. The experiments are carried out with MELN cells activated by 10^-9 M estradiol. The level of base activity of the MELN cells is obtained with the anti-estrogen 1 μM 4-OH-tamoxifen (hydroxytamoxifen).
The effect of the products tested on the cells activated by 10^-9 M estradiol is expressed as a percentage, the level of base activity being deducted.

[2] = system: RAR; assay: GAL-RAR model, specificity profile (transient transfection of HeLa cells)
From the text: (§6) Studies of the transactivational specificity of the retinoids have been carried out by transitory transfection of HeLa cells. Two types of chimerical receptors can then be expressed by the cells. […] The C region (domain of bonding to the DNA) and the A and B regions (AF-1 activation domain) are suppressed.
(§7) These chimerical receptors activated by an agonist specifically stimulate the transcription of the gene of the luciferase present in a co-transfected plasmid ((17M)5-βG-Luc) where 17M is the response element of Gal4.

[3] = system: RAR; assay: RAR-ERcassette model, specificity profile (transient transfection of HeLa cells); assay type: cell-based
From the text: (§1) The HeLa cells are co-transfected by a plasmid which codes for a retinoic receptor in which the C domain of bonding to the DNA is substituted by that of the receptor to RE estrogens, and a plasmid which places the expression of the luciferase under the control of an ERE (Element of Response to Estrogens). The expressed chimerical receptors are designated as RARα-ERcassette, RARβ-ERcassette, RARγ-ERcassette and RXRα-ERcassette. The A, B, D, E and F regions of the natural receptor are preserved as well as the transcriptional co-operation between the activation domains AF-1 and AF-2. These transitory transfection experiments follow the method of co-precipitation to calcium phosphate. The HeLa cells are co-transfected by […] of plasmid coding for the chimerical receptor, […] of reporter plasmid and […] of expression vector CMV-β-galactosidase used as an internal control of transfection. 24 hours after the transfection, the cells are incubated for 16 hours with the different effectors.
(§2) In this type of chimerical receptor, the C domain of bonding to the DNA of RAR is substituted by that of the receptor to the RE estrogens. The protein obtained is close to the natural RAR receptor and preserves the transcriptional properties of the AF-1 and AF-2 domains. It modulates the transcription by means of an ERE. This RAR-ERcassette model allows one to observe a transcriptional response to a more physiological ligand.
(§3) The study of the selectivity of the compounds was carried out with the RAR-ERcassette chimerical receptors model.

[4] = system: RARα; assay: Transactivation of chimerical receptor GAL4-RARα, transient transfection of HeLa cells (luciferase)
From the text: as §6, §7

[5] = system: RARE; assay: HRLN transactivation (stably transfected HeLa, RARE3-tk-Luc, endogenic receptors); assay type: cell-based
From the text: The cellular lineages HRLN and HRL+N allow one to study the activation of an RARE by endogenic receptors using ligands at physiological concentrations. These lineages derive from HeLa cells transfected in a stable fashion by a reporter gene which places the expression of the gene of the luciferase under the control of a nuclear response element RARE (RARE3 -tk-Luc). The HeLa cells express all the known receptors of the retinoic acid (RARα,β,γ and RXRα,β,γ) with a predominance of RARα and RXRα. The response element RARE used for the HRLN cells corresponds to the sequence of the natural gene of the RARβ receptor (GGTTCAnnnnnAGTTCA). The HRL+N cells comprise the sequence GAGTGAnnnnnCGGTGA.

[6] = system: RARβ; assay: Transactivation of chimerical receptor GAL4-RARβ, transient transfection of HeLa cells (luciferase)
From the text: as §6, §7

[7] = system: ERE; details: cited from earlier work
[8] = system: RARα; assay: Transactivation of chimerical receptor RARα-ERcassette, transient transfection of HeLa cells; assay type: cell-based; details: -9 log M; 100% = TTNPB 10^-8 M
From the text: as §1, §2, §3
On one and the same line in the Table, the cis (Z) compound represents the isomeric structure of the trans (E) compound.

[9] = system: MCF-7 cells; assay: Anti-proliferation effect, estrogen-induced growth of MCF-7 cells; assay type: cell-based, human; details: Homo sapiens, MCF7, 168 h, read-out: MCF-7 IC50 (growth inhibition by 50%)
Method: (§4) So as to test the anti-proliferation effect of the retinoids, growth experiments under oestrogenic conditions were carried out on cells MCF-7 and T-47D. These are the human estrogen-dependent mammary cancer cells which express the receptor to RE estrogens. The effect of the molecules is evaluated after 7 days of culture in oestrogenic conditions (estradiol 10^-9 M) by dosing the cellular DNA. The cells are distributed in 24 well plates at a density of 2×10^4 cells per well. The tests with the different retinoids are carried out in triplicate and the culture medium is changed after 4 days of growth.
(§5) The effect of the retinoids on the growth of MCF-7 and T-47D cells is evaluated after 7 days of culture in the presence of 10^-9 M estradiol by dosing the cellular DNA.

[10] = system: AP-1; assay: Anti-AP-1 effect, MTLN cellular lineage (MCF-7 with (TRE)3-tk-Luc) activated by TPA; assay type: cell-based, human; details: 10^-7 M TPA, range of several experiments
Method: The anti-factor AP-1 transrepressor effect of retinoids is determined using the MTLN lineage, coming from MCF-7 cells transfected in a stable fashion by a vector p(TRE)3 -tk-Luc which places the expression of the gene of luciferase under the control of […]. TPA activates the AP-1 complex formed from proteins of the family of nuclear proto-oncogenes (c-Jun and c-Fos). […] The experiments ware made with the MTLN cells activated by 10^-7 M TPA.
The effect of the compounds on the MTLN cells activated by 10^-7 M TPA is expressed as a percentage. […] The inhibitive properties of the products are calculated after deduction of the base activity of the cells. The percentages reported correspond to a range of inhibitions determined from several experiments.

[11] = system: T-47D cells; assay: Anti-proliferation effect, estrogen-induced growth of T-47D cells; assay type: cell-based, human; details: Homo sapiens, T47D, 168 h, read-out: T-47D IC50 (growth inhibition by 50%)
Method: as §4, §5

CC1=C(/C=C/C(C)=C/C=C/C(C)=C/C(=O)O)C(C)(C)CCC1 [ttRA, all trans retinoic acid]
inhibition at 0.1 µM [1]: 35%
GAL-RAR agonist profile in words [2]: good RAR agonists
RAR-ERcassette profile in words [3]: induce an over-expression of luciferase in comparison to the induction brought about by a synthetic compound (TTNPB)
GAL4-RARα activity, % of activity measured for 10^-8 M TTNPB ([4]; Concentration -6 (log M)): 108%
GAL4-RARα activity, % of activity measured for 10^-8 M TTNPB ([4]; Concentration -7 (log M)): 102%
GAL4-RARα activity, % of activity measured for 10^-8 M TTNPB ([4]; Concentration -8 (log M)): 82%
HRLN transactivation in words [5]: dose-dependent activation
EC50 ([5]; Homo sapiens, HeLa, concentrations from 1 nM to 1 μM, read-out: HRLN transactivation EC50): 2.5 ± 4 nM
Emax ([5]; Homo sapiens, HeLa, read-out: HRLN transactivation E max %): 208%
GAL4-RARβ activity, % of activity measured for 10^-8 M TTNPB ([6]; Concentration -6 (log M)): 92%
GAL4-RARβ activity, % of activity measured for 10^-8 M TTNPB ([6]; Concentration -7 (log M)): 93%
GAL4-RARβ activity, % of activity measured for 10^-8 M TTNPB ([6]; Concentration -8 (log M)): 104%
Effect on cellular growth and expression of estrogen-dependent genes [7]: reduces the cellular growth and the expression of estrogen-dependent genes
RAR-ERcassette RARα transactivation (%) [8]: 65%
IC50 [9]: 14.1 ± 10.3 nM
Anti-AP-1 effect, Inhibition (%) ([10]; -7 log M): 28-44%
Anti-AP-1 effect, Inhibition (%) ([10]; -8 log M): 22-33%
IC50 [11]: 39.1 nM
